These results are taken from article PMC6934184, “Selective DNA-PKcs inhibition extends the therapeutic index of localized radiotherapy and chemotherapy” (The Journal of Clinical Investigation, 2019).

Each structure is given as a SMILES string.

The test deals with T1, CDK9/cyclin T1 (Homo sapiens, UniProt P50750).
T1 construct: purchased Thermo Fisher Scientific (Life Technologies) SelectScreen
Description: SelectScreen Adapta. The test is classed as biochemical. The essentials: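 Compound tested in SelectScreen activity assays, Z'LYTE for CSF1R, CDK1/cyclin B and MAP2K6 and Adapta for CAMK1. ATP for CAMK1 was listed as 10, and Km app was used for CSF1R. Results are expressed in percent.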

T1 sequence (P50750 whole entry): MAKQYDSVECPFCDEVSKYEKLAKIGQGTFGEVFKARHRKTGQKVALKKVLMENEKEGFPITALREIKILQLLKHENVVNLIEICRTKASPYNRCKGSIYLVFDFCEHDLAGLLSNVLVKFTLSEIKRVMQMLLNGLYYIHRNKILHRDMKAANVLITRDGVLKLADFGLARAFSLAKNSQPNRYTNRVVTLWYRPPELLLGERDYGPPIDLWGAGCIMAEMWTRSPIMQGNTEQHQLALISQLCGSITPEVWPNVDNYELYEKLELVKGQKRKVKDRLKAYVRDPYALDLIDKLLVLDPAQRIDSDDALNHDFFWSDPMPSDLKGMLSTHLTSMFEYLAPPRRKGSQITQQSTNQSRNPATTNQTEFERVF
T1 sequence (O60563 whole entry partner): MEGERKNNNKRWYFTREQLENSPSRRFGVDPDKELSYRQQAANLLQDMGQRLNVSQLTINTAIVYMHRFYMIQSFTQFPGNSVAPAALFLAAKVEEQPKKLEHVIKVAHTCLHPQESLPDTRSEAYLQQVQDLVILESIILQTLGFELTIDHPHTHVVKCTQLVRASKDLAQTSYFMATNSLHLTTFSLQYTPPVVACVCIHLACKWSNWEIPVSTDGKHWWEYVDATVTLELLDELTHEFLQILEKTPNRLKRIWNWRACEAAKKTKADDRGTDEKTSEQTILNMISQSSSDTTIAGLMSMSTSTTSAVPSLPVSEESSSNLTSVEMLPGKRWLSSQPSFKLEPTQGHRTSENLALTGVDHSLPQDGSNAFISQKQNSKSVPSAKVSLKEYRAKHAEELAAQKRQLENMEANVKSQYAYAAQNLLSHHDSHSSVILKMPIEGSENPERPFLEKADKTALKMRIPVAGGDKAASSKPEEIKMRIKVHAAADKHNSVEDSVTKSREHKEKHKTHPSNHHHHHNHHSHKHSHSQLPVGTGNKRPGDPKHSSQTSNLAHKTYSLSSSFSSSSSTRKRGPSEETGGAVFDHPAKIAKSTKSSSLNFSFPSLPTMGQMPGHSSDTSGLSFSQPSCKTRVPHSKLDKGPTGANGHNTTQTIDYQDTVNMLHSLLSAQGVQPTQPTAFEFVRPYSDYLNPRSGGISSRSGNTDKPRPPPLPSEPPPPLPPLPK

In the case of `CN(C(=O)CN1CCOCC1)c1ccc2sc3c(-c4cccc5c(=O)cc(N6CC7CCC(C6)O7)oc45)cccc3c2c1` [NU5455], the inhibition at 1 µM is -1.4%.

For orientation: inhibition means the relative decrease from the control value, in per cent.
